Experimental data from publication PMC10526274, “Epithelial-Immune Cell Crosstalk Determines the Activation of Immune Cells In Vitro by the Human Cathelicidin LL-37 at Low Physiological Concentrations” (Biomolecules, 2023).

Tested on: primary blood monocytes
Assay: Multiplex phosphoprotein signaling in monocyte lysates, monocytes alone + LL-37
Format: cell-based, human
Settings: 1 µM LL-37, 2 h, mean MFI normalized to β-tubulin
Protocol: Primary blood monocytes were isolated from PBMCs by plastic adhesion in the wells of a 24-well plate 24 h prior to the experiment. For that, 2 × 10^6 PBMC were seeded in each well in 2 mL of RPMI-1640 without supplements and kept for 1 h in a humidified CO2-incubator (5% CO2, 37 °C). Then, the adhered monocytes were thoroughly washed 3 times with the culture medium without supplements, and 600 µL of the complete RPMI-1640, supplemented with 10% Human AB serum, was added into each well. Then, 24 h later, the medium in the wells of a 24-well plate was replaced by a fresh medium with or without 1 µM of LL-37, and the permeable inserts with Caco-2 monolayers with TEER > 400 Ω × cm^2, containing 400 μL of the complete medium in their apical chamber, were immediately placed into the appropriate wells for 2 h. Then, 2 h later, the culture medium and the inserts were carefully removed, and the cells in each well were washed with PBS and lysed in 100 µL of MILLIPLEX MAP Lysis Buffer (cat. #43-040, Merck, Darmstadt, Germany), containing phosphatase inhibitors including 1 mM sodium orthovanadate (Na3VO4). To prevent protein degradation, a protease inhibitor cocktail (cat. #535140, Merck) was freshly added to the MILLIPLEX MAP Lysis Buffer. Cell lysate preparation was performed in accordance with the manufacturer’s instructions.
The phosphorylation of the following key cell signaling kinases and transcription factors was measured in cell lysates by using the MILLIPLEX multi-pathway magnetic bead 9-plex kit (#48-680MAG, Merck), containing phosphorylation state-specific antibodies: ERK/MAP kinase 1/2 (Thr185/Tyr187), Akt (Ser473), STAT3 (Ser727), JNK (Thr183/Tyr185), p70S6 kinase (Thr412), NF-κB (Ser536), STAT5A/B (Tyr694/699), CREB (Ser133), and p38 (Thr180/Tyr182). β-Tubulin MAPmate magnetic beads (#46-713MAG, Merck) were used as an assay normalization control to normalize the total protein level between the samples. A multiplex assay was carried out in accordance with the manufacturer’s instructions with overnight incubation of the samples with primary antibodies to phosphorylated signaling proteins on the MAGPIX system (Merck) using the xPONENT 4.2 software (Merck). The final analysis of the acquired fluorescence data was performed with the MILLIPLEX Analyst v5.1 software (Merck). Normalized MFI values were compared with an unpaired two-sample t-test using GraphPad Prism v.8.0.1 (GraphPad Software). The p-values ≤ 0.05 were considered significant.

## LL-37: the only human cathelicidin, host defense antimicrobial peptide of 37 a.a. residues, produced by solid-phase peptide synthesis
Control 0.03
  phosphorylated STAT3: 0.04 MFI
Control 96.21
  phosphorylated NF-kB: 54.12 MFI
Control 134.68
  phosphorylated STAT5: 66.15 MFI
Control 214.97
  phosphorylated JNK: 140.9 MFI
Control 279.26
  phosphorylated p70S6K: 462.14 MFI
Control 3026
  phosphorylated Akt: 2827 MFI
Control 5351
  phosphorylated ERK 1/2: 4054 MFI
Control 28314
  phosphorylated p38: 24565 MFI
Control 151618
  phosphorylated CREB: 112466 MFI
